{
  "source": "paper PMC11153306",
  "about": "“Unraveling the efficacy of verbascoside in thwarting MRSA pathogenicity by targeting sortase A” (Applied Microbiology and Biotechnology, 2024)",
  "target": "T1, sortase A (SrtA) (Staphylococcus aureus, UniProt Q2FV99)",
  "T1 construct": "6 × His recombinant SrtA from pET28a::srtA",
  "T1 sequence (Q2FV99 whole entry)": "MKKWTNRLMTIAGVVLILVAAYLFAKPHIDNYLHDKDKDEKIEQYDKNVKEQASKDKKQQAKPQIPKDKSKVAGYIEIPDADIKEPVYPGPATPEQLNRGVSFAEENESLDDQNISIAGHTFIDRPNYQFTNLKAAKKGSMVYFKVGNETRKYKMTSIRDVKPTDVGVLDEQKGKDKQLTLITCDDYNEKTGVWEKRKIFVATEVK",
  "test": "intrinsic fluorescence quenching (Stern-Volmer, KA); supported by FRET inhibition of purified SrtA (IC50 […]) and reversibility by dilution",
  "assay_type": "binding",
  "details": "read-out: intrinsic fluorescence quenching (Stern-Volmer, KA); supported by FRET inhibitio (converted)",
  "text": "This indicated a significant interaction between verbascoside and SrtA",
  "data": [
    {"molecule": "C[C@@H]1O[C@@H](O[C@@H]2[C@@H](O)[C@H](OCCc3ccc(O)c(O)c3)O[C@H](CO)[C@H]2OC(=O)/C=C/c2ccc(O)c(O)c2)[C@H](O)[C@H](O)[C@H]1O", "note": "[verbascoside]", "values": [
      {"measurement": "Kd", "value": 41, "unit": "µM"}
    ]}
  ]
}
